Source: patent US20090123563A1, “Pharmaceutical Preparations Comprising Insulin, Zinc Ions and Zinc-Binding Ligand” (NOVO NORDISK A/S, priority 2005, published 2009)

Row | SMILES | melting point
1 | O=C1NC(=O)/C(=C/C(Cl)=C/c2ccccc2)S1 | 251 to 254 °C
2 | O=C1NC(=O)/C(=C/c2ccc3cc(O)ccc3c2)S1 | 310 to 314 °C
3 | c1cc(COc2ccc3ccccc3c2)cc(-c2nnn[nH]2)c1 | 200 to 202 °C
4 | O=C1NC(=O)/C(=C/c2cc3ccccc3o2)S1 | 265 to 266 °C
5 | CC(/C=C1\SC(=O)NC1=O)=C\c1ccccc1 | 203 to 210 °C
6 | COc1cc(OCc2c(F)cccc2[N+](=O)[O-])cc(OC)c1/C=C1\SC(=O)NC1=O | 255 to 256 °C
7 | COc1cc(/C=C2\SC(=O)NC2=O)cc(I)c1O | 256 °C
8 | CN(C)c1ccc(/C=C/C=C2\SC(=O)NC2=O)cc1 | 259 to 263 °C
9 | O=C1NC(=O)/C(=C/c2cc3ccccc3[nH]c2=O)S1 | 338 to 347 °C

Other lines, results leading:

Row | melting point | SMILES
10 | 241 to 242 °C | COc1cccc(OC)c1/C=C1\SC(=O)NC1=O
11 | 104 to 105 °C | Cc1cccc(C)c1/C=C1\SC(=O)NC1=O
12 | 152 to 154 °C | O=C1NC(=O)/C(=C/c2c(Cl)cccc2Cl)S1
13 | 331 to 333 °C | COc1cc(O)cc(OC)c1/C=C1\SC(=O)NC1=O
14 | 330 to 333 °C | O=C1NC(=O)/C(=C/c2c[nH]c3ccc([N+](=O)[O-])cc23)S1
